Measured values published in patent US8350048B2, “Amide compounds as boosters of antivirals” (Janssen R&D Ireland, priority 2007, dated 2013).
Where two headings read alike, the source gives them in different places. Blank lines part the entries; values can stand above or below the compound they belong to.

Assays:
[1] = tested on: wild-type HIV-1IIIB strain; assay: Antiviral activity, MT4 LTR-EGFP cellular assay; format: cell-based; design: key to Antiviral activity IIIB (pEC50): pEC50 = -log10(EC50); conditions: for EC50: read-out: Antiviral activity IIIB (pEC50) (converted)
Method: (§1) Assay 1 &2: Antiviral Activity/Toxicity
The compounds of the present invention were tested for antiviral activity in a cellular assay, which was performed according to the following procedure.
The human T-cell line MT4 is engineered with Green Fluorescent Protein (GFP) and an HIV-specific promoter, HIV-1 long terminal repeat (LTR). This cell line is designated MT4 LTR-EGFP, and can be used for the in vitro evaluation of anti-HIV activity of investigational compounds. In HIV-1 infected cells, the Tat protein is produced which upregulates the LTR promotor and finally leads to stimulation of the GFP reporter production, allowing measuring ongoing HIV-infection fluorometrically.
(§2) The ratio of CC50 to EC50 is defined as the selectivity index (SI) and is an indication of the selectivity of the anti-HIV activity of the inhibitor. The ultimate monitoring of HIV-1 infection and cytotoxicity is done using a scanning microscope. Image analysis allows very sensitive detection of viral infection. Measurements are done before cell necrosis, which usually takes place about five days after infection, in particular measurements are performed three days after infection.
(§3) A pEC50 value corresponds to −log10(EC50). A pCC50 value corresponds to −log10(CC50).

[2] = Toxicity, mock-infected MT4 CMV-EGFP cells; format: cell-based, human; conditions: human
Description: as §1
(§4) Analogously, MT4 cells are engineered with GFP and the constitutional cytomegalovirus (CMV) promotor. […] Cytotoxic investigational compounds reduce GFP levels of mock-infected MT4 CMV-EGFP cells.
as §2, §3

[3] = Metabolic stability of test compounds (HLM15'); format: in vitro ADME, human; conditions: for recovery at 15 min, 5 μM: read-out: Metabolic stability (HLM, % recovery after 15')
Description: Human liver tissue is rinsed in ice-cold 0.1 M Tris-HCl (pH 7.4) buffer to wash excess blood. Tissue is then blotted dry, weighed and chopped coarsely using surgical scissors. The tissue pieces are homogenized in 3 volumes of ice-cold 0.1 M phosphate buffer (pH 7.4) using either a Potter-S (Braun, Italy) equipped with a Teflon pestle or a Sorvall Omni-Mix homogenizer, for 7×10 sec. In both cases, the vessel is kept in/on ice during the homogenization process. Tissue homogenates are centrifuged at 9000×g for 20 min at 4° C. using a Sorvall centrifuge or Beckman Ultracentrifuge. The resulting supernatant can be stored at −80° C. and is designated ‘S9’. The S9 fraction is centrifuged at 100,000×g for 60 min at 4° C. using a Beckman ultracentrifuge. The resulting supernatant is carefully aspirated, aliquoted and designated ‘cytosol’. The pellet is re-suspended in 0.1 M phosphate buffer (pH 7.4) in a final volume of 1 ml per 0.5 g original tissue weight and designated ‘microsomes’. All sub-cellular fractions are aliquoted, immediately frozen in liquid nitrogen and stored at −80° C. until use.
Heat-inactivated (10 min at 95° C.) ‘S9’ or microsomes were used for blank experiments. […] The reaction was incubated for 0 or 15 min. Next, the reaction was stopped by addition of 2 volumes of DMSO (or acetonitrile). Samples were centrifuged (10 min, 900×g) and analyzed by LC-MS.

MT4 CMV-EGFP cells = assay: Toxicity, mock-infected MT4 CMV-EGFP cells; format: cell-based, human
Description: as §1, §4, §2, §3

CYP2C9 = CYP2C9 (Homo sapiens, UniProt P11712); assay: in vitro
Description: Assay 4: CYP450 Inhibition

CYP2C19 = CYP2C19 (Homo sapiens, UniProt P33261); assay: in vitro; conditions: E. coli expressed CYP2C19, pH 7.4, probe CEC 25 μM
Method: Inhibition of the metabolism of test compounds by different CYP P450 isoenzymes was determined using E. coli expressed proteins (3A4, 2C9, 2D6, 1A2, and 2C19) that convert their specific substrates into a fluorescent molecule (Table 6). This fluorescent molecule was measured using a fluorescent plate reader (Victor2 (Wallac) or Fluoroskan (Labsystems)). […] CYP P450 enzymes were prepared in house or commercially bought and stored at −80° C.
The assay was performed in black 96 well Costar plates. Test compounds were added to a CYP P450 enzyme solution in the presence of an NADPH generating system. After 5 min of preincubation at 37° C., the freshly prepared, phosphate buffered (pH 7.4) substrate solution was added. Known CYP P450 inhibitors were used as positive controls, negative controls were run without CYP P450 enzyme. […] Reaction mixtures were incubated at 37° C. for 30 min (CYP3A4-BFC), 30 min (CYP3A4-BQ), 10 min (CYP3A4-DBF), 15 min (CYP1A2-CEC), 30 min (CYP2C9-MFC, CYP2C19-CEC), or 45 min (CYP2D6-AMMC), respectively. Then, the reaction was stopped by the addition of 200 μl acetonitrile, and the fluorescent signal was detected.
Calculation of CYP P450 isoenzyme inhibition (% inh.):
% activity=(100/(average positive control−average negative control))×(average sample−average negative control)

CYP2D6 = CYP2D6 (Homo sapiens, UniProt P10635); assay: in vitro; conditions: pH 7.4
[4] = Human immunodeficiency virus 1, 72 h, wild-type HIV-1 IIIB, MT4 LTR-EGFP cells, three days after infection
[5] = mock-infected MT4 CMV-EGFP cells, read-out: Toxicity MT4 (pCC50) (converted)
[6] = human liver microsomes 1 mg/ml, 5 μM test compound, 15 min
[7] = wild-type HIV-1 IIIB, MT4 LTR-EGFP cells, three days after infection
[8] = pH 7.4, human liver microsomes 1 mg/ml, 5 μM test compound, 15 min
[9] = Human immunodeficiency virus 1, IIIB, 72 h

Sequence of CYP2D6 (P10635 whole entry): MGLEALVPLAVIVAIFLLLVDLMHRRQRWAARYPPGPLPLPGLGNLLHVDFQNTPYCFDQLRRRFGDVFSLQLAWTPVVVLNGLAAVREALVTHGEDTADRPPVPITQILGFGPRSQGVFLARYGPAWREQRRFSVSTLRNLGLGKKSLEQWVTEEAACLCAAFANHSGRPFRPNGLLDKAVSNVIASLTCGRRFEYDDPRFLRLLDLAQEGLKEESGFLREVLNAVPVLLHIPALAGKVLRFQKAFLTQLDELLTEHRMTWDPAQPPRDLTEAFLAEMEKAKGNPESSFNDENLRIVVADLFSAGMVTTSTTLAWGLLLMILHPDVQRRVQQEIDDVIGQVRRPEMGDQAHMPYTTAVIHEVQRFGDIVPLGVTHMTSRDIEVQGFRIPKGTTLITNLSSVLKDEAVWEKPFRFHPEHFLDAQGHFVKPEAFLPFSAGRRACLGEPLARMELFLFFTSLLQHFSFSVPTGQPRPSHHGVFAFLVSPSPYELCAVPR
Sequence of CYP2C9 (P11712 whole entry): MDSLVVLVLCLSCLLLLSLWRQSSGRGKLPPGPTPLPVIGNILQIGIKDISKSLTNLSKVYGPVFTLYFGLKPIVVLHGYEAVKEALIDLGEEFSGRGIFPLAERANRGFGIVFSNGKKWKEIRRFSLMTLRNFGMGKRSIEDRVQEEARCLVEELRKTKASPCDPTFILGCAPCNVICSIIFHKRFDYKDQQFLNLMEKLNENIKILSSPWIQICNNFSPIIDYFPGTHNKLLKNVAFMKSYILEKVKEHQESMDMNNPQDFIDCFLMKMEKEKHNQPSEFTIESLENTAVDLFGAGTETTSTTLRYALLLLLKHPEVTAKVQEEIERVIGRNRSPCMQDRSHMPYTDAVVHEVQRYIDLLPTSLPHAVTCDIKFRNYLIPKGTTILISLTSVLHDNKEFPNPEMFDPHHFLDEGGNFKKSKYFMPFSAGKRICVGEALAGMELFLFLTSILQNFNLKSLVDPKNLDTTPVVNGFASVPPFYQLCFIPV
Sequence of CYP2C19 (P33261 whole entry): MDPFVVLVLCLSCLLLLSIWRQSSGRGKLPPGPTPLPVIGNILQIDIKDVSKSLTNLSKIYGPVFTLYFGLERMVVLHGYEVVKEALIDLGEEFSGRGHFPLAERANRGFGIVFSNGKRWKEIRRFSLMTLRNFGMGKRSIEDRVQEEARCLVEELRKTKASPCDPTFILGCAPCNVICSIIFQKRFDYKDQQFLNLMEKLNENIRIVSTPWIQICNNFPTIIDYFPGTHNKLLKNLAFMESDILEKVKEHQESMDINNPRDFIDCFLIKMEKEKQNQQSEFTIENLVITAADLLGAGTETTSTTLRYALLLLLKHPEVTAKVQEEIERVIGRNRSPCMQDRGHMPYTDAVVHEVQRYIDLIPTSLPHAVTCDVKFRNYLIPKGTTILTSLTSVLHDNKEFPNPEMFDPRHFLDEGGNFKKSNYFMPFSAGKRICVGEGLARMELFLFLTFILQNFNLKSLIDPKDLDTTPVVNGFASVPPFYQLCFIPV

Compound: C#CCN(C)c1nc2ccc(C(=O)N(CC(C)C)C[C@@H](O)[C@H](Cc3ccccc3)NC(=O)OCc3cncs3)cc2o1 [Compound C50]
Metabolic stability (HLM, % recovery after 15') [3, 6]: 72%
Antiviral activity IIIB (pEC50) [1, 7]: =4.32
Toxicity MT4 (pCC50) (MT4 CMV-EGFP cells; mock-infected MT4 CMV-EGFP cells): =4.32

Compound: CCN(C)c1nc2ccc(C(=O)N(CC(C)C)C[C@@H](O)[C@H](Cc3ccccc3)NC(=O)OCc3cccnc3)cc2o1 [Compound C9]
Metabolic stability (HLM, % recovery after 15') [3, 6]: 65%
Antiviral activity IIIB (pEC50) [1, 7]: =4.32
Toxicity MT4 (pCC50) (MT4 CMV-EGFP cells): =4.24
Cyp450 inhibition: CDNA-CYP2C9-MFC (% inhibition) (CYP2C9): 91%

Compound: CCN(C)c1nc2ccc(C(=O)N(CCN(C)C)C[C@@H](O)[C@H](Cc3ccccc3)NC(=O)OCc3cncs3)cc2o1 [Compound C11]
Metabolic stability (HLM, % recovery after 15') [3, 6]: 57%
Antiviral activity IIIB (pEC50) [1, 7]: <4.00
Toxicity MT4 (pCC50) (MT4 CMV-EGFP cells): <4.00
Cyp450 inhibition: CDNA-CYP2C9-MFC (% inhibition) (CYP2C9): 29%

Compound: CCN(C)c1nc2ccc(C(=O)N(CCN3CCCC3)C[C@@H](O)[C@H](Cc3ccccc3)NC(=O)OCc3cncs3)cc2o1 [Compound C12]
Metabolic stability (HLM, % recovery after 15') [3, 6]: 69%
Antiviral activity IIIB (pEC50) [1, 7]: <4.00
Toxicity MT4 (pCC50) (MT4 CMV-EGFP cells): <4.00
Cyp450 inhibition: CDNA-CYP2C9-MFC (% inhibition) (CYP2C9): 34%

Compound: CCN(C)c1nc2ccc(C(=O)N(CC(C)C)C[C@H](O)[C@H](Cc3ccccc3)NC(=O)OCc3cncs3)cc2o1 [Compound C52, Thiazol-5-ylmethyl (2S,3S)-4-(2-(ethyl(methyl)amino)-N-isobutylbenzo[d]-oxazole-6-carboxamido)-3-hydroxy-1-phenylbutan-2-ylcarbamate]
recovery at 15 min, 5 μM [3, 8]: 63%
EC50 [1, 4]: 44.7 µM
CC50 [2]: 44.7 µM

Compound: CCN(C)c1nc2ccc(C(=O)N(CC(C)C)C[C@@H](O)[C@H](Cc3ccccc3)NC(=O)OCc3ccc4c(c3)OCO4)cc2o1 [Compound C36]
Metabolic stability (HLM, % recovery after 15') [3, 6]: 62%
Antiviral activity IIIB (pEC50) [1, 7]: =4.79
Toxicity MT4 (pCC50) (MT4 CMV-EGFP cells): =4.57
Cyp450 inhibition: CDNA-CYP2C9-MFC (% inhibition) (CYP2C9): 84%

Compound: CCN(C)c1nc2ccc(C(=O)N(C[C@@H](O)[C@H](Cc3ccccc3)NC(=O)OCc3cncs3)CC(C)(C)C)cc2o1 [Compound C43]
Metabolic stability (HLM, % recovery after 15') [3, 6]: 67%
Antiviral activity IIIB (pEC50) [1, 7]: =4.32
Toxicity MT4 (pCC50) (MT4 CMV-EGFP cells): =4.34
Cyp450 inhibition: CDNA-CYP2C9-MFC (% inhibition) (CYP2C9): 97%

Compound: CC(C)CN(C[C@@H](O)[C@H](Cc1ccccc1)NC(=O)OCc1cncs1)C(=O)c1ccc2nc(N(C)CCN(C)C)oc2c1 [Compound C24]
Metabolic stability (HLM, % recovery after 15') [3]: 57%
Antiviral activity IIIB (pEC50) [1]: =4.20
Toxicity MT4 (pCC50) (MT4 CMV-EGFP cells): <4.00

Compound: O=C(N[C@@H](Cc1ccccc1)[C@H](O)CN(CC1CCCCC1)C(=O)c1ccc2nc(N3CCCC3)oc2c1)OCc1cncs1 [Compound C31, Thiazol-5-ylmethyl (2S,3R)-4-(N-(cyclohexylmethyl)-2-(pyrrolidin-1-yl)-benzo[d]oxazole-6-carboxamido)-3-hydroxy-1-phenylbutan-2-ylcarbamate]
recovery at 15 min, 5 μM [3, 8]: 59%
EC50 [1, 9]: 27.5 µM
CC50 at 3 days [2, 5]: 21.9 µM
inhibition at 30 min, 10 μM (CYP2C19): 104%
inhibition at 45 min, 10 μM (CYP2D6): 78%

Compound: CC(C)CN(C[C@@H](O)[C@H](Cc1ccccc1)NC(=O)OCc1cncs1)C(=O)c1ccc2nc(N3CCOCC3)oc2c1 [Compound C5]
Metabolic stability (HLM, % recovery after 15') [3, 6]: 67%
Antiviral activity IIIB (pEC50) [1, 7]: <4.00
Toxicity MT4 (pCC50) (MT4 CMV-EGFP cells): =4.06
Cyp450 inhibition: CDNA-CYP2C9-MFC (% inhibition) (CYP2C9): 95%

Compound: CC(C)CN(C[C@H](O)[C@H](Cc1ccccc1)NC(=O)OCc1cncs1)C(=O)c1ccc2nc(N3CCCC3)oc2c1 [Compound C51, Thiazol-5-ylmethyl (2S,3S)-3-hydroxy-4-(N-isobutyl-2-(pyrrolidin-1-yl)-benzo[d]oxazole-6-carboxamido)-1-phenylbutan-2-ylcarbamate]
recovery at 15 min, 5 μM [3, 8]: 66%
EC50 [1, 4]: 44.7 µM
CC50 at 3 days [2, 5]: 40.7 µM
inhibition at 30 min, 10 μM (CYP2C19): 94%
inhibition at 45 min, 10 μM (CYP2D6): 82%

Compound: CC(C)CN(C[C@@H](O)[C@H](Cc1ccccc1)NC(=O)OCc1cncs1)C(=O)c1ccc2nc(N)oc2c1 [Compound C22]
Metabolic stability (HLM, % recovery after 15') [3]: 72%
Antiviral activity IIIB (pEC50) [1]: <4.00
Toxicity MT4 (pCC50) (MT4 CMV-EGFP cells): <4.00

Compound: CC(C)CN(C[C@@H](O)[C@H](Cc1ccccc1)NC(=O)OCc1cncs1)C(=O)c1ccc2nc(C(C)C)oc2c1 [Compound C45, Thiazol-5-ylmethyl (2S,3R)-3-hydroxy-4-(N-isobutyl-2-isopropylbenzo[d]-oxazole-6-carboxamido)-1-phenylbutan-2-ylcarbamate]
recovery at 15 min, 5 μM [3, 8]: 68%
EC50 [1, 4]: 44.7 µM
CC50 at 3 days [2, 5]: 42.7 µM
inhibition at 30 min, 10 μM (CYP2C19): 89%
inhibition at 45 min, 10 μM (CYP2D6): 44%

Compound: CCN(C)c1nc2ccc(C(=O)N(CCN3CCOCC3)C[C@@H](O)[C@H](Cc3ccccc3)NC(=O)OCc3cncs3)cc2o1 [Compound C18]
Metabolic stability (HLM, % recovery after 15') [3, 6]: 64%
Antiviral activity IIIB (pEC50) [1, 7]: <4.00
Toxicity MT4 (pCC50) (MT4 CMV-EGFP cells): <4.00
Cyp450 inhibition: CDNA-CYP2C9-MFC (% inhibition) (CYP2C9): 53%

Compound: CCN(C[C@@H](O)[C@H](Cc1ccccc1)NC(=O)OCc1cncs1)C(=O)c1ccc2nc(N3CCCC3)oc2c1 [Compound C30, Thiazol-5-ylmethyl (2S,3R)-4-(N-ethyl-2-(pyrrolidin-1-yl)benzo[d]oxazole-6-carboxamido)-3-hydroxy-1-phenylbutan-2-ylcarbamate]
recovery ([3]; human, pH 7.4): 80%
EC50 [1, 9]: 69.2 µM
CC50 [2]: 72.4 µM

Second part, led by results:

EC50 [1, 4]: > 100 µM
Compound: CC(C)CN(C[C@@H](O)[C@H](Cc1cccnc1)NC(=O)OCc1cncs1)C(=O)c1ccc2ncsc2c1 [Compound C55, Thiazol-5-ylmethyl (2S,3R)-3-hydroxy-4-(N-isobutylbenzo[d]thiazole-6-carboxamido)-1-(pyridin-3-yl)butan-2-ylcarbamate]
CC50 at 3 days [2, 5]: > 100 µM

Metabolic stability (HLM, % recovery after 15') [3, 6]: 59%
Antiviral activity IIIB (pEC50) [1, 7]: =4.22
Cyp450 inhibition: CDNA-CYP2C9-MFC (% inhibition) (CYP2C9): 28%
Compound: CC(C)CN(C[C@@H](O)[C@H](Cc1ccccc1)NC(=O)OCc1cncs1)C(=O)c1ccc2nc(NCCCN(C)C)oc2c1 [Compound C23]
Toxicity MT4 (pCC50) (MT4 CMV-EGFP cells): <4.00

recovery at 15 min, 5 μM [3, 8]: 71%
EC50 [1, 4]: 70.8 µM
Compound: CCN(C)c1nc2ccc(C(=O)N(CC(C)C)C[C@@H](O)[C@H](Cc3ccccc3)NC(=O)OCc3cncs3)cc2o1 [Compound C1, Thiazol-5-ylmethyl (2S,3R)-4-(2-(ethyl(methyl)amino)-N-isobutylbenzo[d]-oxazole-6-carboxamido)-3-hydroxy-1-phenylbutan-2-ylcarbamate]
CC50 at 3 days [2]: > 81.3 µM

EC50 [1, 4]: > 100 µM
Compound: CCN(C)c1nc2ccc(C(=O)N(CC(C)C)C[C@@H](O)[C@H](Cc3cccnc3)NC(=O)OCc3cncs3)cc2o1 [Compound C54, Thiazol-5-ylmethyl (2S,3R)-4-(2-(ethyl(methyl)amino)-N-isobutylbenzo[d]-oxazole-6-carboxamido)-3-hydroxy-1-(pyridin-3-yl)butan-2-ylcarbamate]
CC50 at 3 days [2, 5]: > 100 µM

Metabolic stability (HLM, % recovery after 15') [3, 6]: 92%
Antiviral activity IIIB (pEC50) [1, 7]: =4.06
Cyp450 inhibition: CDNA-CYP2C9-MFC (% inhibition) (CYP2C9): 90%
Compound: CC(C)CN(C[C@@H](O)[C@H](Cc1ccccc1)NC(=O)OCc1cncs1)C(=O)c1ccc2nc(NCCCn3ccnc3)oc2c1 [Compound C46]
Toxicity MT4 (pCC50) (MT4 CMV-EGFP cells): <4.00

Metabolic stability (HLM, % recovery after 15') [3, 6]: 60%
Antiviral activity IIIB (pEC50) [1, 7]: <4.00
Cyp450 inhibition: CDNA-CYP2C9-MFC (% inhibition) (CYP2C9): 93%
Compound: CC(C)CN(C[C@@H](O)[C@H](Cc1ccccc1)NC(=O)OCc1cncs1)C(=O)c1ccc2ncn(C(C)C)c2c1 [Compound C14]
Toxicity MT4 (pCC50) (MT4 CMV-EGFP cells): <4.00
